Measurements published in patent publication US20120220455A1, “Azolylmethyloxiranes, Their Use for Controlling Phytopathogenic Fungi and Compositions Comprising Them” (BASF SE, priority 2006, published 2012).

Tested on: Alternaria solani
Assay: Efficacy against early blight of tomato caused by Alternaria solani (Alteso P1), greenhouse
Assay type: in vivo
Conditions: Comparative Example 1, potted tomato plants, visual rating after 5 days
Procedure: The active compounds were prepared separately or jointly as a stock solution comprising 25 mg of active compound which was made up to 10 ml using a mixture of acetone and/or DMSO and the emulsifier Wettol EM 31 (wetting agent having emulsifying and dispersing action based on ethoxylated alkylphenols) in a volume ratio of solvent/emulsifier of 99:1. The mixture was then made up to 100 ml with water. This stock solution was diluted with the solvent/emulsifier/water mixture described to give the concentration of active compounds stated below. Leaves of potted tomato plants were sprayed to runoff point with an aqueous suspension having the active compound concentration stated below. The next day, the leaves were inoculated with an aqueous spore suspension of Alternaria solani in a 2% biomalt solution. The plants were then placed in a water vapor-saturated chamber at temperatures between 20 and 22° C. After 5 days, the disease on the untreated but infected control plants had developed to such an extent that the infection could be determined visually in %. […]

Compound	Infection in % at 63 ppm for Alteso P1
COc1ccc([C@@]2(Cn3cncn3)O[C@@H]2c2ccccc2Cl)c(F)c1 (racemic) [Compound 14.10]	5%
COc1ccc(C2(Cn3cncn3)OC2c2ccccc2Cl)cc1 (centres unmarked) [As described in EP-A 0 196 038]	90%
